Target: T1, furin (Homo sapiens, UniProt P09958)
T1 construct: recombinant soluble human furin
Test: fluorogenic protease assay with Pyr-RTKR-AMC substrate
Format: biochemical

T1 sequence (P09958 108-715): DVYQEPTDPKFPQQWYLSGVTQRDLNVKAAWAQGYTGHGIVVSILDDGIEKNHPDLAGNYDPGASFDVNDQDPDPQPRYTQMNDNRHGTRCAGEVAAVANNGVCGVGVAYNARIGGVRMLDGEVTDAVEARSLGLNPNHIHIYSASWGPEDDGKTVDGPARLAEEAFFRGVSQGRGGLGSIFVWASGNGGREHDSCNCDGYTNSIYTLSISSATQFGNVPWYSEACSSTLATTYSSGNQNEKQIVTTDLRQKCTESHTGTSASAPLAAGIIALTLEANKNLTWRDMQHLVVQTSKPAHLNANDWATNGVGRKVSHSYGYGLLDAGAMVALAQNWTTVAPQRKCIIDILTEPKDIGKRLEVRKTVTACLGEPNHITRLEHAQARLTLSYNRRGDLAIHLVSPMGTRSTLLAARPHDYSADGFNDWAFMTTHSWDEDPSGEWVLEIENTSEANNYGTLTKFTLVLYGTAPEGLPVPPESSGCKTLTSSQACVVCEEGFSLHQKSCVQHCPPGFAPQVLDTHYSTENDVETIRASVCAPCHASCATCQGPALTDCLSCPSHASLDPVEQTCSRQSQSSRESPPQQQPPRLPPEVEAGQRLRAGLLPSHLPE

`O=c1c(O)c(-c2ccc(O)c(O)c2)oc2cc(O)cc(O)c12` [QC, quercetin] showed an IC50 of roughly 116 µM.
